The source of these data is patent US20260042802A1, “POLYPEPTIDE AND USE THEREOF” (priority 2024, published 2026).

Assay [1] has as its system mouse acetate acid writhing model. Briefly: Mouse acetate acid writhing model. It is filed as in vivo, C57BL/6 mice. The text has this:
Seventy SPF-grade healthy C57BL/6 mice, half male and half female, weighing 22-25 g and 8-10 weeks old, are randomly selected. Seventy C57BL/6 mice are weighed and numbered in ascending order of body weight (No. S1-S70). The mice are randomly divided into seven groups in terms of the randomized numerical table method, which are the saline group and the experimental groups, among which the experimental groups include the PPN-01 group, the PPN-04 group, the PPN-06 group, the PPN-11 group, the PPN-12 group, and the PPN-16 group. The dosing concentration (i.e., the concentration of added polypeptides PPN-01, PPN-04, PPN-06, PPN-11, PPN-12, and PPN-16) in each group is 10 mg/kg, with 10 mice in each group.
Saline Group: 10 healthy mice are routinely reared for one week; the saline is intraperitoneally injected once daily at a concentration of 10 ml/kg for 7 consecutive days; 15 min after the last injection is finished, 0.7% glacial acetic acid (10 ml/kg) is intraperitoneally injected; and each mouse is observed for their writhing behaviors.
Experimental Group: 10 healthy mice are routinely reared for one week; 10 ml/kg of different polypeptides are injected intraperitoneally at a concentration of 0.1 mL/10 g once daily for 7 consecutive days; 15 min after the last injection is finished, 0.7% glacial acetic acid (10 ml/kg) is intraperitoneally injected; and each mouse is observed for their behaviors in writhing.
During the above experiments, the time of first writhing (writhing latency) and the number of writhing in each mouse within 15 min are recorded immediately after the injection of glacial acetic acid solution in each group of mice. When behavioral responses such as inward concavity of the abdomen, extension of the torso and hind limbs, and elevation of the buttocks occur, it is considered to be a complete writhing response, and the results are shown in Table 3 and FIG. 6.
Forty SPF-grade healthy C57BL/6 mice, half male and half female, weighing 22-25 g and 8-10 weeks old, are randomly selected. Forty C57BL/6 mice are weighed and numbered in ascending order of body weight (No. 1 to No. 40). The mice are randomly divided into five groups according to the randomized numerical table method, namely, the saline group, the low-concentration group (2.5 mg/kg), the medium-concentration group (10 mg/kg), the high-concentration group (40 mg/kg), and the diclofenac sodium group (30 mg/kg), with eight mice in each group.
Saline Group: 8 healthy mice are routinely reared for one week; the saline is intraperitoneally injected once daily at a concentration of 10 ml/kg for 7 consecutive days; 15 min after the last injection is finished, 0.7% glacial acetic acid (10 ml/kg) is intraperitoneally injected; and each mouse is observed for their behaviors in writhing. […]
(An intraperitoneal irritant provokes the stretching counted in writhing tests.)

For a further assay, the target named is T1, Nav1.5 (Homo sapiens, UniProt Q14524).
T1 construct: expressed in transfected cells; host or cells: HEK293
Nature of the assay: Whole-cell patch clamp on Nav1.5 overexpressing HEK293 cells. It is filed as cell-based. As to conditions: 300 nM; −90 mV to +40 mV, 30 ms; n=5. The method, then:
(§1) The effect of the polypeptide PPN-01 provided in Example 1 on voltage gated sodium channels is studied using the glass microelectrodes prepared as described above in Example 2 and employing the whole-cell membrane clamp techniques. The specific operations are as follows:
(§2) 1. Firstly, internal electrode solution is placed on ice to defrost; after defrosting, an appropriate amount of internal electrode solution is drawn up with a 1 ml syringe; and after a homemade filler is applied to the tip end of the syringe, the air in the tube is emptied to fill the entire filler with internal electrode solution. Secondly, internal electrode solution in the filler is poured into the glass microelectrode from a rear part thereof by using the rear part perfusion method; internal electrode solution is slowly injected into the glass microelectrode; and the amount of perfusion is generally ⅓ to ½ of a length of the glass microelectrode (it is necessary to ensure that the silver wire of the electrode may fully contact internal electrode solution, but also to avoid electrode contamination resulting from too much internal electrode solution). […]
On the technique in general: In patch-clamp work, channel activity is measured electrically.

In another assay the target is T2, Nav1.6 (Homo sapiens, UniProt Q9UQD0).
T2 construct: expressed in transfected cells; host or cells: HEK293
Briefly: Whole-cell patch clamp on Nav1.6 overexpressing HEK293 cells. It counts as cell-based. The settings on record: 300 nM; −90 mV to +40 mV, 30 ms; n=5. On the procedure: as §1, §2

Another assay concerns the target T3, Nav1.4 (Homo sapiens, UniProt P35499).
T3 construct: expressed in transfected cells; host or cells: HEK293
Nature of the assay: Whole-cell patch clamp on Nav1.4 overexpressing HEK293 cells. It is filed as cell-based. The settings on record: 300 nM; −90 mV to +40 mV, 30 ms; n=5. The method, then:
as §1, §2

Setting [2] is: 10 mg/kg i.p. once daily for 7 days, 0.7% glacial acetic acid 15 min after last injection, 10 mice.

Where a SMILES comes first, the peptide text is derived from it. Bridges are numbered along the chain shown (N, C = ends).

T2 sequence (Q9UQD0 whole entry): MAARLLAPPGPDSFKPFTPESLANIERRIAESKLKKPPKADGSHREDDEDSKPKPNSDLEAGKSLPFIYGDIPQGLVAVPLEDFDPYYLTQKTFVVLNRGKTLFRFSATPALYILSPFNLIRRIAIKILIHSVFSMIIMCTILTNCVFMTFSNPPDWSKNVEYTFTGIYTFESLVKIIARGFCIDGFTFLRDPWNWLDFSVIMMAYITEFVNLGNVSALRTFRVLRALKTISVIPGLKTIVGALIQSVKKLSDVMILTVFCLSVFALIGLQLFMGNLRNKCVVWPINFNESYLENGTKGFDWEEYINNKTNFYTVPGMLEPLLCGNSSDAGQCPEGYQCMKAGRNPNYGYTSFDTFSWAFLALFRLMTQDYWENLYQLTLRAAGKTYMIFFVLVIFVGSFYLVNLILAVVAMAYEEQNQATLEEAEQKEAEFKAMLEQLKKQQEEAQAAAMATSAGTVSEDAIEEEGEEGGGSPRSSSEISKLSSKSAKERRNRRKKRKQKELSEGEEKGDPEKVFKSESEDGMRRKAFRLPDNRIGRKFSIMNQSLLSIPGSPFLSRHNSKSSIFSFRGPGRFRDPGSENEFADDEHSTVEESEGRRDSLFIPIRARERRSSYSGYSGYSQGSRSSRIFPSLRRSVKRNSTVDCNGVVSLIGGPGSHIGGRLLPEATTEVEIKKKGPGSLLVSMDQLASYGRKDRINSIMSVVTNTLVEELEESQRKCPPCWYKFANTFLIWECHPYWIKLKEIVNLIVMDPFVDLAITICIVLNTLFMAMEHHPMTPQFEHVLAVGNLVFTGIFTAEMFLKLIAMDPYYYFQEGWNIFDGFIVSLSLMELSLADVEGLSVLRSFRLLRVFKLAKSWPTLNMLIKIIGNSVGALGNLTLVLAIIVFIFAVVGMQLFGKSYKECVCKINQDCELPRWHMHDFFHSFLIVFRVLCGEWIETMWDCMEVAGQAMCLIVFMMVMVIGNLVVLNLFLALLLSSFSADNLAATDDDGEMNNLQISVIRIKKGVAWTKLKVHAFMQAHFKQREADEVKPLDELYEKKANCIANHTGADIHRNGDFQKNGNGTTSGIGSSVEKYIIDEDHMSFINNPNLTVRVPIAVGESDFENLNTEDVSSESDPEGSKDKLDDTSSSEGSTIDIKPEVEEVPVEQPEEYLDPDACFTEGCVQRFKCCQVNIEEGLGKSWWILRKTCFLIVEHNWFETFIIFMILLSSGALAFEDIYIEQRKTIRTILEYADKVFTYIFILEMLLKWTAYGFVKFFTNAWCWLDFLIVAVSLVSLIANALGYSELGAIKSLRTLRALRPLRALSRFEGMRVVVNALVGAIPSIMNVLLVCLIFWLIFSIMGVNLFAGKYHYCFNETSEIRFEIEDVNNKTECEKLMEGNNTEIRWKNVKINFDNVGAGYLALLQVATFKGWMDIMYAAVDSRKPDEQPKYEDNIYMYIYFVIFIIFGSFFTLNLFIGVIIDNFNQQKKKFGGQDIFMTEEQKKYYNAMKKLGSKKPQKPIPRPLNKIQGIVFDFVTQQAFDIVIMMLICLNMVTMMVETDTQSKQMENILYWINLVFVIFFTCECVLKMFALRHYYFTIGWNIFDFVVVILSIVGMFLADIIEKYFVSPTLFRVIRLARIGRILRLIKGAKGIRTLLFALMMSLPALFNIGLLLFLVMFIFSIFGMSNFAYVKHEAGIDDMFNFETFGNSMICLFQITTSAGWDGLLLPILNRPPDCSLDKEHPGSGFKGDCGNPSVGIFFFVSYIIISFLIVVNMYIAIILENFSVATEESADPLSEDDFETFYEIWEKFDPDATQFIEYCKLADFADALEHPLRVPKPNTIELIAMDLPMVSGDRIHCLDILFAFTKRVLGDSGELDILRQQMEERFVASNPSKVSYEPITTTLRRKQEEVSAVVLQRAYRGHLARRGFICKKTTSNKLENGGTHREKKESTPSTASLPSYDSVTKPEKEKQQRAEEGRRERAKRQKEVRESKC
T3 sequence (P35499 whole entry): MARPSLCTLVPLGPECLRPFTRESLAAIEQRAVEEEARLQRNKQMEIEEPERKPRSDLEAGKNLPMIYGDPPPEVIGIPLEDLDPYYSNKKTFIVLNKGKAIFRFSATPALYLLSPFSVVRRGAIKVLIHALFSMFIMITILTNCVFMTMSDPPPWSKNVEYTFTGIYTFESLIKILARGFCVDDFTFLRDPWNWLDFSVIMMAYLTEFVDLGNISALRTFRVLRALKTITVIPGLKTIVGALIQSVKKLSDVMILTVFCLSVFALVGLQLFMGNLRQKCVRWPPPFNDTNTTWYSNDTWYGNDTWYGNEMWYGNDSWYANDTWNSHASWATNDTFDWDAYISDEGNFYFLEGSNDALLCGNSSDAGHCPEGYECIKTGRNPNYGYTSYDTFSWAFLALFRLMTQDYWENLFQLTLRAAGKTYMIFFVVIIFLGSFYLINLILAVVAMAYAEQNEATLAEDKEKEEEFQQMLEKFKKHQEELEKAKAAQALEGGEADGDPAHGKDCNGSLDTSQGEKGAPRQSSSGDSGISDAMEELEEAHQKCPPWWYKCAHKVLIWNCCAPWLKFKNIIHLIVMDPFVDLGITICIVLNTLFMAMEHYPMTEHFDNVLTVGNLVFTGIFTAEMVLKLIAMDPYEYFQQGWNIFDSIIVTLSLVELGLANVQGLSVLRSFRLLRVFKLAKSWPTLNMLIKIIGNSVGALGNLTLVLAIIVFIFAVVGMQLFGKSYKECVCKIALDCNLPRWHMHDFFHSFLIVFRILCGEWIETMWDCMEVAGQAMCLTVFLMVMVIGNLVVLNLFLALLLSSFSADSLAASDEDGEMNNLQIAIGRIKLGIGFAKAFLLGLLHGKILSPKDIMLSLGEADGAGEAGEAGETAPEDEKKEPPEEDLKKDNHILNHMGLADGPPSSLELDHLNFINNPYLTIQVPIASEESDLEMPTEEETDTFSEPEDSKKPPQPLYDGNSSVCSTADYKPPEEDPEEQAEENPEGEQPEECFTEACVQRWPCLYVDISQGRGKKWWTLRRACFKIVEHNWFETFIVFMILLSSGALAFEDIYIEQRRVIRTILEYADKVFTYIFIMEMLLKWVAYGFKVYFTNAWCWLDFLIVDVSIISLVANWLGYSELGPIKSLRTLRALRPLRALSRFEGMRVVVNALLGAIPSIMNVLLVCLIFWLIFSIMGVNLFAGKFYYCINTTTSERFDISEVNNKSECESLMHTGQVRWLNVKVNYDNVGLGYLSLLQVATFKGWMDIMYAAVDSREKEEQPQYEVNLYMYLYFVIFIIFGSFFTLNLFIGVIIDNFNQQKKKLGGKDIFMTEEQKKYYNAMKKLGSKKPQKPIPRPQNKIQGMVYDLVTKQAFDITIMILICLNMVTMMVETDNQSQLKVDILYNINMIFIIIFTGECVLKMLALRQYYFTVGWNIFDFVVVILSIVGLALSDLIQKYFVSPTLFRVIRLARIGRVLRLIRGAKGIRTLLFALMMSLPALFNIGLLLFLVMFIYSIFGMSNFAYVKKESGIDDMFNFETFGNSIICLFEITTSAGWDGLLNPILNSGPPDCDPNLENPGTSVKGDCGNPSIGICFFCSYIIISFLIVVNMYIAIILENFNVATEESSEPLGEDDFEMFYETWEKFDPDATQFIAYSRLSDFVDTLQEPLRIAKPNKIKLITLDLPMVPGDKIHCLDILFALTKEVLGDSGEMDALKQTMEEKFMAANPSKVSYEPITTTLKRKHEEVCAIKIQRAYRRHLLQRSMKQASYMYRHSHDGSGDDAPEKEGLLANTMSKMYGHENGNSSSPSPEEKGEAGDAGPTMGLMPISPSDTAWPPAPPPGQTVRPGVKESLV

For the compound `CSCC[C@@H]1NC(=O)CNC(=O)[C@H](CCC(=O)O)NC(=O)[C@@H]2CSSC[C@H](NC(=O)[C@H](Cc3ccc(O)cc3)NC(C)=O)C(=O)N[C@@H](CCC(N)=O)C(=O)N[C@@H](CCCCN)C(=O)N[C@@H](Cc3ccccc3)C(=O)N[C@@H](CC(C)C)C(=O)N[C@@H](C)C(=O)N3CCC[C@H]3C(=O)N[C@H]3CSSC[C@H](NC(=O)[C@H](CCC(=O)O)NC1=O)C(=O)N[C@@H](CCCCN)C(=O)N[C@@H](CC(C)C)C(=O)N[C@@H](Cc1c[nH]c4ccccc14)C(=O)N[C@H](C(=O)N[C@@H](CCCCN)C(=O)N[C@@H](CCCCN)C(=O)N[C@@H](CCCCN)C(=O)N[C@@H](CC(C)C)C(=O)N[C@@H](Cc1c[nH]c4ccccc14)C(N)=O)CSSC[C@H](NC(=O)[C@H](CCCCN)NC(=O)[C@H](CCCNC(=N)N)NC(=O)[C@H](CCC(=O)O)NC(=O)[C@H](CO)NC(=O)[C@H](CC(=O)O)NC3=O)C(=O)N2` [PPN-01] (Ac-YCQKFLAPCDSERKCCEGMECKLWCKKKLW-NH2; disulfide 2-16, 9-21, 15-25), in assay [1] (setting [2]), the Number of writhing is 14.4 times/15 min and the “Time of first writhing” value was determined as 4.15 min. Further, the “analgesic effect on the mouse acetate acid writhing model” value in assay [1] (10 mg/kg i.p., 7 days, compared with saline group) was “certain analgesic effect”. Further, the “inhibition effect on Nav1.5 overexpressing HEK293 cells” value against Nav1.5 is “no significant inhibition effect”. Also, at Nav1.6, the “inhibition effect on Nav1.6 overexpressing HEK293 cells” value is “no significant inhibition effect”. Further, the “inhibition effect on Nav1.4 overexpressing HEK293 cells” value against Nav1.4 was “no significant inhibition effect”.
